Measured values reported in the NIST ThermoML archive (doi:10.1016/j.fluid.2017.09.014).

Test: xn = mol fraction of the nth substance listed
Settings: Vibrating tube method, x2 = 0.9503

O=S=O [sulfur dioxide] + O=C=O
Settings | mass density [kg/m3]
322.49 K, 26001 kPa, Fluid (supercritical or subcritical phases) | 875.4
322.49 K, 26517 kPa, Fluid (supercritical or subcritical phases) | 878.8
322.49 K, 27508 kPa, Fluid (supercritical or subcritical phases) | 886.3
322.49 K, 28018 kPa, Fluid (supercritical or subcritical phases) | 889.5
322.49 K, 29025 kPa, Fluid (supercritical or subcritical phases) | 896.4
322.49 K, 29507 kPa, Fluid (supercritical or subcritical phases) | 899.6
322.5 K, 17499 kPa, Fluid (supercritical or subcritical phases) | 793.5
322.5 K, 18503 kPa, Fluid (supercritical or subcritical phases) | 806.6
322.5 K, 19491 kPa, Fluid (supercritical or subcritical phases) | 818.5
322.5 K, 24497 kPa, Fluid (supercritical or subcritical phases) | 864.4
322.5 K, 25003 kPa, Fluid (supercritical or subcritical phases) | 867.7
322.51 K, 11504 kPa, Fluid (supercritical or subcritical phases) | 649.9
322.51 K, 12003 kPa, Fluid (supercritical or subcritical phases) | 672.3
322.51 K, 16502 kPa, Fluid (supercritical or subcritical phases) | 779.1
322.51 K, 17005 kPa, Fluid (supercritical or subcritical phases) | 786.2
322.52 K, 14000 kPa, Fluid (supercritical or subcritical phases) | 731.9
322.52 K, 14504 kPa, Fluid (supercritical or subcritical phases) | 742.9
322.52 K, 15012 kPa, Fluid (supercritical or subcritical phases) | 753.2
322.52 K, 15501 kPa, Fluid (supercritical or subcritical phases) | 761.8
322.52 K, 16003 kPa, Fluid (supercritical or subcritical phases) | 770.9
322.53 K, 12505 kPa, Fluid (supercritical or subcritical phases) | 691.1
322.53 K, 13501 kPa, Fluid (supercritical or subcritical phases) | 720.4
322.54 K, 13000 kPa, Fluid (supercritical or subcritical phases) | 706.7
352.93 K, 202 kPa, Gas | 3
352.93 K, 6001 kPa, Gas | 114.8
352.94 K, 1742 kPa, Gas | 28.6
352.94 K, 2504 kPa, Gas | 41.8
352.94 K, 4003 kPa, Gas | 70.6
352.94 K, 4493 kPa, Gas | 80.5
352.94 K, 6516 kPa, Gas | 127.7
352.94 K, 7017 kPa, Gas | 140.9
352.94 K, 7498 kPa, Fluid (supercritical or subcritical phases) | 154.1
352.94 K, 8038 kPa, Fluid (supercritical or subcritical phases) | 170.3
352.94 K, 9008 kPa, Fluid (supercritical or subcritical phases) | 201.9
352.95 K, 306 kPa, Gas | 4.6
352.95 K, 402 kPa, Gas | 6
352.95 K, 511 kPa, Gas | 7.6
352.95 K, 740 kPa, Gas | 11.4
352.95 K, 1507 kPa, Gas | 24.3
352.95 K, 2002 kPa, Gas | 33
352.95 K, 2248 kPa, Gas | 37
352.95 K, 2800 kPa, Gas | 47.2
352.95 K, 3009 kPa, Gas | 51
352.95 K, 4997 kPa, Gas | 91.5
352.95 K, 5490 kPa, Gas | 102.6
352.95 K, 9230 kPa, Fluid (supercritical or subcritical phases) | 209.5
352.95 K, 12000 kPa, Fluid (supercritical or subcritical phases) | 321.9
352.95 K, 12505 kPa, Fluid (supercritical or subcritical phases) | 346.8
352.95 K, 14502 kPa, Fluid (supercritical or subcritical phases) | 447.3
352.95 K, 15497 kPa, Fluid (supercritical or subcritical phases) | 493.2
352.95 K, 16515 kPa, Fluid (supercritical or subcritical phases) | 535.1
352.95 K, 17520 kPa, Fluid (supercritical or subcritical phases) | 569.4
352.95 K, 19511 kPa, Fluid (supercritical or subcritical phases) | 624.5
352.95 K, 21993 kPa, Fluid (supercritical or subcritical phases) | 677.2
352.95 K, 22493 kPa, Fluid (supercritical or subcritical phases) | 686.4
352.95 K, 23011 kPa, Fluid (supercritical or subcritical phases) | 694.8
352.95 K, 24538 kPa, Fluid (supercritical or subcritical phases) | 717.4
352.95 K, 25002 kPa, Fluid (supercritical or subcritical phases) | 723.7
352.95 K, 31494 kPa, Fluid (supercritical or subcritical phases) | 793.2
352.96 K, 982 kPa, Gas | 15.1
352.96 K, 1248 kPa, Gas | 19.9
352.96 K, 3495 kPa, Gas | 60.3
352.96 K, 8507 kPa, Fluid (supercritical or subcritical phases) | 185.5
352.96 K, 10075 kPa, Fluid (supercritical or subcritical phases) | 238.1
352.96 K, 11001 kPa, Fluid (supercritical or subcritical phases) | 276.4
352.96 K, 12998 kPa, Fluid (supercritical or subcritical phases) | 371.8
352.96 K, 13501 kPa, Fluid (supercritical or subcritical phases) | 397.6
352.96 K, 14004 kPa, Fluid (supercritical or subcritical phases) | 422.3
352.96 K, 15003 kPa, Fluid (supercritical or subcritical phases) | 470.1
352.96 K, 16004 kPa, Fluid (supercritical or subcritical phases) | 514.7
352.96 K, 17006 kPa, Fluid (supercritical or subcritical phases) | 552.6
352.96 K, 19011 kPa, Fluid (supercritical or subcritical phases) | 611.7
352.96 K, 20014 kPa, Fluid (supercritical or subcritical phases) | 636.9
352.96 K, 20490 kPa, Fluid (supercritical or subcritical phases) | 647.4
352.96 K, 20999 kPa, Fluid (supercritical or subcritical phases) | 657.9
352.96 K, 21521 kPa, Fluid (supercritical or subcritical phases) | 668.5
352.96 K, 23524 kPa, Fluid (supercritical or subcritical phases) | 703.1
352.96 K, 24023 kPa, Fluid (supercritical or subcritical phases) | 710.4
352.96 K, 25555 kPa, Fluid (supercritical or subcritical phases) | 731.2
352.96 K, 26036 kPa, Fluid (supercritical or subcritical phases) | 736.4
352.96 K, 27501 kPa, Fluid (supercritical or subcritical phases) | 752.6
352.96 K, 28006 kPa, Fluid (supercritical or subcritical phases) | 758.3
352.96 K, 28507 kPa, Fluid (supercritical or subcritical phases) | 764.2
352.96 K, 29492 kPa, Fluid (supercritical or subcritical phases) | 773.9
352.96 K, 29991 kPa, Fluid (supercritical or subcritical phases) | 779
352.96 K, 31058 kPa, Fluid (supercritical or subcritical phases) | 789.4
352.96 K, 31993 kPa, Fluid (supercritical or subcritical phases) | 797.6
352.96 K, 33014 kPa, Fluid (supercritical or subcritical phases) | 805.8
352.96 K, 33519 kPa, Fluid (supercritical or subcritical phases) | 809.8
352.96 K, 36996 kPa, Fluid (supercritical or subcritical phases) | 835.2
352.97 K, 10506 kPa, Fluid (supercritical or subcritical phases) | 255.3
352.97 K, 11505 kPa, Fluid (supercritical or subcritical phases) | 298.8
352.97 K, 18007 kPa, Fluid (supercritical or subcritical phases) | 583.3
352.97 K, 18500 kPa, Fluid (supercritical or subcritical phases) | 597.8
352.97 K, 26597 kPa, Fluid (supercritical or subcritical phases) | 742.8
352.97 K, 29001 kPa, Fluid (supercritical or subcritical phases) | 768.7
352.97 K, 30512 kPa, Fluid (supercritical or subcritical phases) | 784.7
352.97 K, 32552 kPa, Fluid (supercritical or subcritical phases) | 802.4
352.97 K, 34055 kPa, Fluid (supercritical or subcritical phases) | 814.5
352.97 K, 35014 kPa, Fluid (supercritical or subcritical phases) | 821.4
352.97 K, 35510 kPa, Fluid (supercritical or subcritical phases) | 824.7
352.97 K, 36496 kPa, Fluid (supercritical or subcritical phases) | 831.8
352.97 K, 37499 kPa, Fluid (supercritical or subcritical phases) | 838.7
352.97 K, 38520 kPa, Fluid (supercritical or subcritical phases) | 845.7
352.97 K, 39009 kPa, Fluid (supercritical or subcritical phases) | 848.1
352.98 K, 27043 kPa, Fluid (supercritical or subcritical phases) | 747.4
352.98 K, 34563 kPa, Fluid (supercritical or subcritical phases) | 818.1
352.98 K, 36013 kPa, Fluid (supercritical or subcritical phases) | 828.1
352.98 K, 38023 kPa, Fluid (supercritical or subcritical phases) | 842.1
352.98 K, 39300 kPa, Fluid (supercritical or subcritical phases) | 850.2
352.98 K, 39330 kPa, Fluid (supercritical or subcritical phases) | 850.5
